The values that follow are results of earlier work, collected in patent US6908630B2, “Combinations of sesquiterpene lactones and ditepene triepoxide lactones for synergistic inhibition of cyclooxygenase-2” (Metaproteomics, LLC, priority 2000, dated 2005).

For the series the following is noted: gastrointestinal disturbance, nausea and vomiting, hypotension, edema.

On to `CC(C)[C@]12O[C@H]1[C@@H]1O[C@]13[C@]1(O[C@H]1C[C@H]1C4=C(CC[C@@]13C)C(=O)OC4)[C@@H]2O` [Triptolide], for which the “patients showing some type of side effects” value was “Approximately 28%”.
